The structures appear in SMILES notation. Where only a bound is given, the exact number is not on record here.

What is called IC50 is the concentration needed to halve the response being measured.

This assay has as its target T1, human ENT1 (Homo sapiens, UniProt Q99808).
T1 sequence (Q99808 1-456): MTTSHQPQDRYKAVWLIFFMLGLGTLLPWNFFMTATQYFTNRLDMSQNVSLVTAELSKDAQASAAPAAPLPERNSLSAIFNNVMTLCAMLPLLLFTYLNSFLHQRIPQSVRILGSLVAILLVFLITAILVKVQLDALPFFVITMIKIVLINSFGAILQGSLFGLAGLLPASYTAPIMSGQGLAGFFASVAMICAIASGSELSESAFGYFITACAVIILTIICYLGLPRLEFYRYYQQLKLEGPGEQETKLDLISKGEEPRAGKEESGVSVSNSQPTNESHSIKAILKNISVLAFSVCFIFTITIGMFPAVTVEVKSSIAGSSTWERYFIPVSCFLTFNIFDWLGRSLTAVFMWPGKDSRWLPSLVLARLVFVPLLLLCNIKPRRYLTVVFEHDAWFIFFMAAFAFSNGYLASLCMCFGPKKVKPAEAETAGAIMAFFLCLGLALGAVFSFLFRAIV
Nature of the assay: ENT1 binding assay (competition with Sahenta-DY647 on JAR cells). The note with it: competition with Sahenta-DY647 100 nM, 4° C. Also on record: JAR cells expressing ENT1 were bought from ATCC® (HTB-144TM); host or cells: JAR cells (human choriocarcinoma line; whole cells). How it is done:
The present assay aims at showing that the compounds of the present invention can bind to human ENT1. The principle of the assay is a competition between the compounds of this invention and Sahenta-DY647, an ENT1 inhibitor that emits fluorescence (Ex = 630 nm, Em = 670 nm). By measuring the fluorescence at the end of the assay we could assess the binding potency of the compounds of the present invention.
JAR cells expressing ENT1 were bought from ATCC® (HTB-144TM). Cells were cultured in RPMI 1640 medium (LONZA®, #BE12-702F/U1) supplemented with 10% FBS (GIBCO®, #10270-106), 10 mM Hepes (LONZA®, #BE17-737E), 1 mM Sodium Pyruvate (LONZA®, #BE13-115E) and 2% Penicillin/Streptomycin (LONZA®, #DE17-603E) at 37° C. and 5% CO2. The assay was conducted on the following buffer: HBSS (LONZA®, #LO-527F) supplemented with 10 mM Hepes (LONZA®, #BE17-737E) and 0.1% BSA (Miltenyi®, #130-091-376) on the day of the assay. JAR cells were resuspended in the described buffer. Compounds of the present invention and Sahenta-DY647 were diluted 200X in the described buffer.
A total of 50000 cells were pre-incubated for 30 min at 4° C. with the compounds of the present invention before adding the corresponded IC90 of Sahenta-DY647 (100 nM) and incubate once more for 30 min at 4° C. The total volume of the reaction was 100 µL (50 µL of cells, 25 µL of the compounds of the present invention and 25 µL of Sahenta-DY647) in a 96 well plate, U-bottom (Greiner®, #650-180). The plates were washed 2X by centrifugation (4 min, 400 rcf at 4° C.) in the same buffer. Cells were resuspended in 70 µL of the buffer and 50 µL was transferred to a Black 384 Optiplate (PerkinElmer®, #6007279). Fluorescence (Ex = 630 nm, Em = 670 nm) was acquired on a Spectramax i3x (Molecular Devices®).
For the molecule `COc1cc(C(=O)O[C@H]2CCCOc3cccc(c3)C(=O)OCCCN3CCCN(CC2)CC3)cc(OC)c1OC` (stereo in doubt) [Compound 17, (12S)-6-oxo-5,8-dioxa-1(1,4)-diazepana-7(1,3)-benzenacyclotetradecaphane-12-yl 3,4,5-trimethoxybenzoate], the 50% inhibitory concentration (IC50) is more than 500 nM.
The result for `O=C1NCCCN2CCCN(CC[C@@H](OC(=O)c3ccccc3)CCCOc3cccc1c3)CC2` (stereo in doubt) [Compound 19, (12S)-6-oxo-8-oxa-5-aza-1(1,4)-diazepana-7(1,3)-benzenacyclotetradecaphane-12-yl benzoate] reads more than 500 nM; that for `O=C1NCCCN2CCCN(CC[C@H](OC(=O)c3ccccc3)CCCOc3cccc1c3)CC2` (stereo in doubt) [Compound 20, (12R)-6-oxo-8-oxa-5-aza-1(1,4)-diazepana-7(1,3)-benzenacyclotetradecaphane-12-yl benzoate], more than 500 nM; that for `COc1cc2cc(c1OC)OCCC[C@H](O/N=C/c1ccccc1)CCN1CCCN(CCCNC2=O)CC1` (stereo in doubt) [Compound 116, (E)-benzaldehyde O-((12S)-74,75-dimethoxy-6-oxo-8-oxa-5-aza-1(1,4)-diazepana-7(1,3)-benzenacyclotetradecaphane-12-yl) oxime], more than 500 nM.
The result for `COc1cc(C(=O)NC2CCCOc3cc(cc(OC)c3OC)C(=O)OCCCN3CCCN(CC2)CC3)cc(OC)c1OC` (stereo not drawn) [Compound 3, N-(74,75-dimethoxy-6-oxo-5,8-dioxa-1(1,4)-diazepana-7(1,3)-benzenacyclotetradecaphane-12-yl)-3,4,5-trimethoxybenzamide] reads more than 500 nM.
`COc1cc(C(=O)O[C@H]2CCCOc3cc(cc(OC)c3OC)C(=O)NCCCN3CCCN(CC2)CC3)cc(OC)c1OC` [Compound 9, (12S)-74,75-dimethoxy-6-oxo-8-oxa-5-aza-1(1,4)-diazepana-7(1,3)-benzenacyclotetradecaphane-12-yl 3,4,5-trimethoxybenzoate]: the IC50 was more than 500 nM.
`COc1cc(C(=O)O[C@H]2CCCOc3cc(cc(OC)c3OC)C(=O)N(C)CCCN3CCCN(CC2)CC3)cc(OC)c1OC` [Compound 12, (12S)-74,75-dimethoxy-5-methyl-6-oxo-8-oxa-5-aza-1(1,4)-diazepana-7(1,3)-benzenacyclotetradecaphane-12-yl 3,4,5-trimethoxybenzoate] came in with a half-maximal inhibitory concentration (IC50) of more than 500 nM.
The result for `COc1cc(C(=O)O[C@H]2CCCn3ncc4c(Cl)cc(cc43)C(=O)NCCCN3CCCN(CC2)CC3)cc(OC)c1OC` [Compound 15, (10S)-14-chloro-2-oxo-11H-3-aza-1(6,1)-indazola-7(1,4)-diazepanacyclotridecaphane-10-yl 3,4,5-trimethoxybenzoate] reads more than 500 nM; that for `COc1cc(C(=O)O[C@@H]2CCCn3ncc4c(Cl)cc(cc43)C(=O)NCCCN3CCCN(CC2)CC3)cc(OC)c1OC` [Compound 16, (10R)-14-chloro-2-oxo-11H-3-aza-1(6, 1)-indazola-7(1,4)-diazepanacyclotridecaphane-10-yl 3,4,5-trimethoxybenzoate], 20 to 500 nM.
`COc1cc(C(=O)OC2CCCOc3cc(cc(Cl)c3Cl)C(=O)OCCCN3CCCN(CC2)CC3)cc(OC)c1OC` (stereo not drawn) [Compound 21, 74,75-dichloro-6-oxo-5,8-dioxa-1(1,4)-diazepana-7(1,3)-benzenacyclotetradecaphane-12-yl 3,4,5-trimethoxybenzoate] had an IC50 of 1 to 20 nM.
The result for `COc1cc(C(=O)O[C@H]2CCCOc3cc(cc(Cl)c3Cl)C(=O)OCCCN3CCCN(CC2)CC3)cc(OC)c1OC` [Compound 22, (12S)-74,75-dichloro-6-oxo-5,8-dioxa-1(1,4)-diazepana-7(1,3)-benzenacyclotetradecaphane-12-yl 3,4,5-trimethoxybenzoate] reads 20 to 500 nM; that for `COc1cc(C(=O)O[C@@H]2CCCOc3cc(cc(Cl)c3Cl)C(=O)OCCCN3CCCN(CC2)CC3)cc(OC)c1OC` [Compound 23, (12R)-74,75-dichloro-6-oxo-5,8-dioxa-1(1,4)-diazepana-7(1,3)-benzenacyclotetradecaphane-12-yl 3,4,5-trimethoxybenzoate], 20 to 500 nM.
The result for `COc1cc2cc(c1OC)OCCCC(OC(=O)c1ccc(Cl)c(Cl)c1)CCN1CCCN(CCCOC2=O)CC1` (stereo not drawn) [Compound 24, 74,75-dimethoxy-6-oxo-5,8-dioxa-1(1,4)-diazepana-7(1,3)-benzenacyclotetradecaphane-12-yl 3,4-dichlorobenzoate] reads 20 to 500 nM.
Take `COc1cc(C(=O)O[C@H]2CCCn3cc4c(Cl)cc(cc4n3)C(=O)NCCCN3CCCN(CC2)CC3)cc(OC)c1OC` [Compound 25, (11Z, 16E, 10S)-14-chloro-2-oxo-12 H-3-aza-1(6,2)-indazola-7(1,4)-diazepanacyclotridecaphane-10-yl 3,4,5-trimethoxybenzoate]: the IC50 was more than 500 nM.
The result for `COc1cc(C(=O)O[C@@H]2CCCn3cc4c(Cl)cc(cc4n3)C(=O)NCCCN3CCCN(CC2)CC3)cc(OC)c1OC` [Compound 26, (11Z, 16E, 10R)-14-chloro-2-oxo-12H-3-aza-1(6,2)-indazola-7(1,4)-diazepanacyclotridecaphane-10-yl 3,4,5-trimethoxybenzoate] reads more than 500 nM.
Next, `COc1cc2cc(c1OC)OCCCC(OC(=O)c1ccc(F)c(Cl)c1)CCN1CCCN(CCCOC2=O)CC1` (stereo not drawn) [Compound 27, 74,75-dimethoxy-6-oxo-5,8-dioxa-1(1,4)-diazepana-7(1,3)-benzenacyclotetradecaphane-12-yl 3-chloro-4-fluorobenzoate]: 1 to 20 nM; `COc1cc(C(=O)O[C@@H]2CCCOc3cc(cc(Cl)c3C(N)=O)C(=O)NCCCN3CCCN(CC2)CC3)cc(OC)c1OC` [Compound 28, (12R)-74-carbamoyl-75-chloro-6-oxo-8-oxa-5-aza-1(1,4)-diazepana-7(1,3)-benzenacyclotetradecaphane-12-yl 3,4,5-trimethoxybenzoate]: 1 to 20 nM.
Next, `COc1cc2cc(c1OC)OCCCC(OC(=O)c1ccc(F)cc1)CCN1CCCN(CCCOC2=O)CC1` (stereo not drawn) [Compound 29, 74,75-dimethoxy-6-oxo-5,8-dioxa-1(1,4)-diazepana-7(1,3)-benzenacyclotetradecaphane-12-yl 4-fluorobenzoate]: 1 to 20 nM; `COc1cc2cc(c1OC)OCCCC(OC(=O)c1ccc(OC(F)(F)F)cc1)CCN1CCCN(CCCOC2=O)CC1` (stereo not drawn) [Compound 30, 74,75-dimethoxy-6-oxo-5,8-dioxa-1(1,4)-diazepana-7(1,3)-benzenacyclotetradecaphane-12-yl 4-(trifluoromethoxy)benzoate]: 20 to 500 nM.
Molecule `COc1cc2cc(c1OC)OCCC[C@@H](OC(=O)c1ccccc1)CCN1CCCN(CCCOC2=O)CC1` [Compound 31, (12R)-74,75-dimethoxy-6-oxo-5,8-dioxa-1(1,4)-diazepana-7(1,3)-benzenacyclotetradecaphane-12-yl benzoate] displayed an IC50 of 1 to 20 nM.
The result for `COc1cc(C(=O)O[C@@H]2CCCOc3cc(cc(OC)c3OC)C(=O)OCCCC3CCN(CC3)CC2)cc(OC)c1OC` [Compound 34, (R)-74,75-dimethoxy-6-oxo-5,8-dioxa-1(4,1)-piperidina-7(1,3)-benzenacyclotetradecaphane-12-yl 3,4,5-trimethoxybenzoate] reads 1 to 20 nM.
